Measurements taken from the supplement of paper PMC10307832.

Tests used:
Test in all cases: relative viability (nuclei count vs DMSO), 5 days (fraction); higher = more cells survive
201T = test system: 201T
Outline: (§1)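 Relative viability was taken as the ratio of nuclei in treated wells to nuclei in vehicle wells. Lung cancer cell lines in 1536-well plates received compounds by pin tool one day after seeding, either one drug alone or a fixed anchor-drug dose plus five library-drug doses (not always all listed) in √10 steps. Nuclei were counted on 4× images after 5 days of treatment, and values are medians of duplicate plates.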

BEN = test system: BEN
Outline: as §1

COR-L 105 = test system: COR-L 105
Outline: as §1

EMC-BAC-2 = test system: EMC-BAC-2
Outline: as §1

H3255 = test system: H3255
Outline: as §1

HARA = test system: HARA
Outline: as §1

HCC-78 = test system: HCC-78
Outline: as §1

HOP-62 = test system: HOP-62
Outline: as §1

LC-2-ad = test system: LC-2-ad
Outline: as §1

LOU-NH91 = test system: LOU-NH91
Outline: as §1

LU99A = test system: LU99A
Outline: as §1

LXF-289 = test system: LXF-289
Outline: as §1

NCI-H1395 = test system: NCI-H1395
Outline: as §1

NCI-H1563 = test system: NCI-H1563
Outline: as §1

NCI-H1993 = test system: NCI-H1993
Outline: as §1

NCI-H2087 = test system: NCI-H2087
Outline: as §1

NCI-H2126 = test system: NCI-H2126
Outline: as §1

NCI-H2170 = test system: NCI-H2170
Outline: as §1

NCI-H650 = test system: NCI-H650
Outline: as §1

RERF-LC-KJ = test system: RERF-LC-KJ
Outline: as §1

SK-MES-1 = test system: SK-MES-1
Outline: as §1

UMC-11 = test system: UMC-11
Outline: as §1

Cc1csc(=NC2CCCCC2)n1/N=C/c1ccc(O)c(O)c1O [MIM1] + CS(=O)(=O)CCNCc1ccc(-c2ccc3ncnc(Nc4ccc(OCc5cccc(F)c5)c(Cl)c4)c3c2)o1 [Lapatinib] (partner 2 µM)
relative viability (201T; first compound 0.2 µM): 1.08 | relative viability (201T; first compound 0.6325 µM): 1.05 | relative viability (201T; first compound 2 µM): 1.01 | relative viability (201T; first compound 6.325 µM): 0.49 | relative viability (201T; first compound 20 µM): 0.617 | relative viability (BEN; first compound 0.2 µM): 0.732 | relative viability (BEN; first compound 0.6325 µM): 0.674 | relative viability (BEN; first compound 2 µM): 0.843 | relative viability (BEN; first compound 6.325 µM): 0.622 | relative viability (BEN; first compound 20 µM): 0.193 | relative viability (COR-L 105; first compound 0.2 µM): 0.371 | relative viability (COR-L 105; first compound 0.6325 µM): 0.331 | relative viability (COR-L 105; first compound 2 µM): 0.373 | relative viability (COR-L 105; first compound 6.325 µM): 0.319 | relative viability (COR-L 105; first compound 20 µM): 0.294 | relative viability (EMC-BAC-2; first compound 0.2 µM): 0.861 | relative viability (EMC-BAC-2; first compound 0.6325 µM): 0.713 | relative viability (EMC-BAC-2; first compound 2 µM): 0.869 | relative viability (EMC-BAC-2; first compound 6.325 µM): 0.828 | relative viability (EMC-BAC-2; first compound 20 µM): 0.212 | relative viability (H3255; first compound 0.2 µM): 0.274 | relative viability (H3255; first compound 0.6325 µM): 0.208 | relative viability (H3255; first compound 2 µM): 0.242 | relative viability (H3255; first compound 6.325 µM): 0.22 | relative viability (H3255; first compound 20 µM): 0.198 | relative viability (HARA; first compound 0.2 µM): 0.615 | relative viability (HARA; first compound 0.6325 µM): 0.662 | relative viability (HARA; first compound 2 µM): 0.821 | relative viability (HARA; first compound 6.325 µM): 0.55 | relative viability (HARA; first compound 20 µM): 0.128 | relative viability (HCC-78; first compound 0.2 µM): 0.834 | relative viability (HCC-78; first compound 0.6325 µM): 0.964 | relative viability (HCC-78; first compound 2 µM): 0.637 | relative viability (HCC-78; first compound 6.325 µM): 0.492 | relative viability (HCC-78; first compound 20 µM): 0.336 | relative viability (HOP-62; first compound 0.2 µM): 0.929 | relative viability (HOP-62; first compound 0.6325 µM): 0.864 | relative viability (HOP-62; first compound 2 µM): 0.414 | relative viability (HOP-62; first compound 6.325 µM): 0.843 | relative viability (HOP-62; first compound 20 µM): 0.158 | relative viability (LC-2-ad; first compound 0.2 µM): 0.938 | relative viability (LC-2-ad; first compound 0.6325 µM): 0.506 | relative viability (LC-2-ad; first compound 2 µM): 0.888 | relative viability (LC-2-ad; first compound 6.325 µM): 0.352 | relative viability (LC-2-ad; first compound 20 µM): 0.132 | relative viability (LOU-NH91; first compound 0.2 µM): 0.744 | relative viability (LOU-NH91; first compound 0.6325 µM): 0.8 | relative viability (LOU-NH91; first compound 2 µM): 0.645 | relative viability (LOU-NH91; first compound 6.325 µM): 0.625 | relative viability (LOU-NH91; first compound 20 µM): 0.362 | relative viability (LU99A; first compound 0.2 µM): 1.08 | relative viability (LU99A; first compound 0.6325 µM): 0.894 | relative viability (LU99A; first compound 2 µM): 0.779 | relative viability (LU99A; first compound 6.325 µM): 0.915 | relative viability (LU99A; first compound 20 µM): 0.282 | relative viability (LXF-289; first compound 0.2 µM): 0.868 | relative viability (LXF-289; first compound 0.6325 µM): 0.802 | relative viability (LXF-289; first compound 2 µM): 0.895 | relative viability (LXF-289; first compound 6.325 µM): 0.664 | relative viability (LXF-289; first compound 20 µM): 0.592 | relative viability (NCI-H1395; first compound 0.2 µM): 1.14 | relative viability (NCI-H1395; first compound 0.6325 µM): 1.1 | relative viability (NCI-H1395; first compound 2 µM): 0.862 | relative viability (NCI-H1395; first compound 6.325 µM): 0.711 | relative viability (NCI-H1395; first compound 20 µM): 0.515 | relative viability (NCI-H1563; first compound 0.2 µM): 0.903 | relative viability (NCI-H1563; first compound 0.6325 µM): 1.04 | relative viability (NCI-H1563; first compound 2 µM): 0.853 | relative viability (NCI-H1563; first compound 6.325 µM): 0.825 | relative viability (NCI-H1563; first compound 20 µM): 0.462 | relative viability (NCI-H1993; first compound 0.2 µM): 0.875 | relative viability (NCI-H1993; first compound 0.6325 µM): 0.871 | relative viability (NCI-H1993; first compound 2 µM): 0.735 | relative viability (NCI-H1993; first compound 6.325 µM): 0.87 | relative viability (NCI-H1993; first compound 20 µM): 0.541 | relative viability (NCI-H2087; first compound 0.2 µM): 1.04 | relative viability (NCI-H2087; first compound 0.6325 µM): 0.85 | relative viability (NCI-H2087; first compound 2 µM): 0.998 | relative viability (NCI-H2087; first compound 6.325 µM): 0.602 | relative viability (NCI-H2087; first compound 20 µM): 0.511 | relative viability (NCI-H2126; first compound 0.2 µM): 0.763 | relative viability (NCI-H2126; first compound 0.6325 µM): 0.72 | relative viability (NCI-H2126; first compound 2 µM): 0.77 | relative viability (NCI-H2126; first compound 6.325 µM): 0.679 | relative viability (NCI-H2126; first compound 20 µM): 0.339 | relative viability (NCI-H2170; first compound 0.2 µM): 0.282 | relative viability (NCI-H2170; first compound 0.6325 µM): 0.294 | relative viability (NCI-H2170; first compound 2 µM): 0.26 | relative viability (NCI-H2170; first compound 6.325 µM): 0.267 | relative viability (NCI-H2170; first compound 20 µM): 0.258 | relative viability (NCI-H650; first compound 0.2 µM): 0.976 | relative viability (NCI-H650; first compound 0.6325 µM): 0.737 | relative viability (NCI-H650; first compound 2 µM): 0.897 | relative viability (NCI-H650; first compound 6.325 µM): 0.791 | relative viability (NCI-H650; first compound 20 µM): 0.235 | relative viability (RERF-LC-KJ; first compound 0.2 µM): 0.769 | relative viability (RERF-LC-KJ; first compound 0.6325 µM): 0.772 | relative viability (RERF-LC-KJ; first compound 2 µM): 0.795 | relative viability (RERF-LC-KJ; first compound 6.325 µM): 0.75 | relative viability (RERF-LC-KJ; first compound 20 µM): 0.3 | relative viability (SK-MES-1; first compound 0.2 µM): 0.479 | relative viability (SK-MES-1; first compound 0.6325 µM): 0.441 | relative viability (SK-MES-1; first compound 2 µM): 0.504 | relative viability (SK-MES-1; first compound 6.325 µM): 0.416 | relative viability (SK-MES-1; first compound 20 µM): 0.617 | relative viability (UMC-11; first compound 0.2 µM): 1.22 | relative viability (UMC-11; first compound 2 µM): 1.17 | relative viability (UMC-11; first compound 6.325 µM): 0.664 | relative viability (UMC-11; first compound 20 µM): 0.181
